In data set [1] the test system is Prostatic cancer cells, PC-3. Briefly: Cancer cell inhibitory (growth suppressive) action against prostatic cancer cells, CellTiter-Glo viable cell count. The class given is cell-based. To be noted: PC-3, 10 μg/mL, 24 hours. How it is done: Prostatic cancer cells, PC-3, were pre-cultured in RPMI1640 medium containing 10% FBS at 37° C. in a 5% CO2 ambient. Thereafter, 4,000 cells were seeded per well of a 96-well plate and further cultured for 24 hours. Subsequently, Compound (1) was added to the medium so as to obtain a final concentration of 10 μg/mL and cultured at 37° C. for 24 hours in a 5% CO2 ambient. The cultured cells were analyzed for viable cell count according to Cell Titer-Glo Luminescent Cell Viability Assay (manufactured by Promega KK.).
Viable cell count was analyzed in the same manner as in Experimental Example 24 except that Compound (1) of Experimental Example 24 was changed to each compound shown in Table 2.
Viable cell count was analyzed in the same manner as in Experimental Example 24 except that Compound (1) of Experimental Example 24 was changed to each of Comparative compounds 1 to 4, to obtain growth rates.
Note that the growth rate used in Examples refers to the rate (expressed by percentage) of viable cell count after culture relative to the number of cells at the initiation of cell culture. Evaluation criteria are the same as in the above experiments.
In general terms: In ATP-based viability assays light output follows the ATP content of the culture.

In data set [2] the test system is Human chronic myelocytic leukemia cells, K562, ALDH (+) fraction (cancer stem cells). Briefly: Cancer stem-cell selective inhibitory action against chronic myelocytic leukemia cells, ALDH (+) fraction. The class given is cell-based. The note with it: 24 hours. How it is done: Human chronic myelocytic leukemia cells, K562, were pre-cultured in RPMI1640 medium containing 10% FBS at 37° C. in a 5% CO2 ambient. Then, a fraction containing 80% or more of cancer stem cells was extracted by use of a cancer stem cell marker, ALDEFLUOR reagent (manufactured by VERITAS Corporation) and FACSAria flow cytometry (manufactured by Nippon Becton, Dickinson and Company). […] The cultured cells were analyzed for viable cell count according to CellTiter-Glo Luminescent Cell Viability Assay (manufactured by Promega KK.). […] Note that hereinafter, an ALDEFLUOR reagent positive fraction (deemed as cancer stem cells) is represented by ALDH (+), whereas an ALDEFLUOR reagent negative fraction (not deemed as cancer stem cells) is represented by ALDH (−), in some cases.
Further, the growth suppressive effect of cancer stem cells was evaluated based on the following criteria. Note that the growth rate in Examples is a value obtained by dividing viable cell count after culture by the number of cells at the initiation time of culture.

The test system of data set [3] is Human pancreas cancer cells, KLM-1. Nature of the data set: Cancer cell inhibitory (growth suppressive) action against pancreatic cancer cells, CellTiter-Glo viable cell count. To be noted: KLM-1, 10 μg/mL, 24 hours.
Method: Human pancreas cancer cells, KLM-1, were pre-cultured in RPMI1640 medium containing 10% FBS at 37° C. in a 5% CO2 ambient. Thereafter, 4,000 cells were seeded per well of a 96-well plate and further cultured for 24 hours. […] The cultured cells were analyzed for viable cell count according to CellTiter-Glo Luminescent Cell Viability Assay (manufactured by Promega KK.).
Evaluation of cancer cell inhibition against the pancreatic cancer cells (KLM-1) (growth suppression) was made based on the following criteria. Note that the growth rate used in Examples refers to the rate (expressed by percentage) of viable cell count after culture relative to the number of cells at the initiation of cell culture.
A short description of data set [4]: Measurement of fluorescent property of compound. In kind it is physicochemical. The note with it: 5 μM DMSO solution. The method, then:
The excitation wavelength and fluorescence wavelength of the compound were measured by a FL4500 spectrofluorometric measuring machine manufactured by Hitachi High-Technologies Corporation.

These results are taken from patent US10278965B2, “Method of detecting cancer stem cell, method of screening cancer stem cell, and method of inhibiting cancer stem cell” (CANON KABUSHIKI KAISHA, priority 2012, dated 2019).

For the compound `O=C(O)CN1/C(=C\C2=C(Cl)C(=C/c3sc4ccccc4[n+]3CC(=O)O)/CCC2)Sc2ccccc21` [Comparative compound 3, reference compound], in data set [1], the “Cancer cell growth rate (%)” value was determined as 101% and the “Evaluation (cancer cell growth rate)” value is given as “C (Cancer cell growth rate is 50% or more)”. Moreover, in data set [2] (K562, 1 μg/ml), the “ALDH(+) Superiority evaluation” value is on record as “C (The value of the growth rate of ALDH (+)/the growth rate of ALDH (−) is 0.95 or more)” and the “ALDH(+)/ALDH(−)” value was 0.79. Besides, in data set [3], the “Cancer cell growth rate (%)” value is reported as 93.0% and the “Evaluation (cancer cell growth rate)” value is reported as “C (Cancer cell growth rate is 50% or more)”.

In data set [4], `CCC(/C=C1\Sc2ccccc2N1CC)=C\c1sc2ccccc2[n+]1CC.[I-]` [Compound 4] displayed an Excitation wavelength λex of 563 nm and a Fluorescence wavelength λem of 569 nm. In addition, in data set [1], the “Cancer cell growth rate (%)” value is recorded as 19.5% and the “Evaluation (cancer cell growth rate)” value is “A (Cancer cell growth rate is less than 20%)”. Besides, in data set [3], the “Cancer cell growth rate (%)” value was 3.1% and the “Evaluation (cancer cell growth rate)” value was “A (Cancer cell growth rate is less than 20%)”.

In data set [4], `CCC(=C\c1sc2ccc3ccccc3c2[n+]1CC)/C=C1/Sc2ccc3ccccc3c2N1CC` [Compound 10] had an Excitation wavelength λex of 586 nm and a Fluorescence wavelength λem of 615 nm. In addition, in data set [3], the “Cancer cell growth rate (%)” value was found to be 13.5% and the “Evaluation (cancer cell growth rate)” value is recorded as “A (Cancer cell growth rate is less than 20%)”.

With `CCCCCCCN1/C(=C\C=C\c2oc3ccccc3[n+]2CCCCCCC)Oc2ccccc21` [Compound 18], in data set [4], the Excitation wavelength λex stood at 492 nm and the Fluorescence wavelength λem was determined as 510 nm. Also, in data set [2] (K562, 10 μg/ml), the “ALDH(+) Superiority evaluation” value was “A (The value of the growth rate of ALDH (+)/the growth rate of ALDH (−) is less than 0.8)” and the “ALDH(+)/ALDH(−)” value is 0.29.

As for `CN1/C(=C\C=C\C2=[N+](C)c3ccc4ccccc4c3C2(C)C)C(C)(C)c2c1ccc1ccccc21` [Compound 20], in data set [1], the “Cancer cell growth rate (%)” value amounted to 13.1% and the “Evaluation (cancer cell growth rate)” value is reported as “A (Cancer cell growth rate is less than 20%)”. Moreover, in data set [3], the “Cancer cell growth rate (%)” value was 1.2% and the “Evaluation (cancer cell growth rate)” value was “A (Cancer cell growth rate is less than 20%)”.

As to `CCN1\C(=C/C=C/C=C/c2oc3ccccc3[n+]2CC)Oc2ccccc21` [Compound 28], in data set [4], the Excitation wavelength λex came out at 589 nm and the Fluorescence wavelength λem came to 614 nm. Besides, in data set [2] (K562, 1 μg/ml), the “ALDH(+) Superiority evaluation” value is “B (The value of the growth rate of ALDH (+)/the growth rate of ALDH (−) is 0.8 or more and less than 0.95)”; the “ALDH(+)/ALDH(−)” value is recorded as 0.83. In data set [2] (K562, 10 μg/ml), the “ALDH(+) Superiority evaluation” value is reported as “A (The value of the growth rate of ALDH (+)/the growth rate of ALDH (−) is less than 0.8)” and the “ALDH(+)/ALDH(−)” value is reported as 0.69.

Turning to `CCN1/C(=C/C=C/C=C/C=C/C2=[N+](CC)c3ccccc3C23CCCCC3)C2(CCCCC2)c2ccccc21` [Compound 31], in data set [3], the “Cancer cell growth rate (%)” value was determined as 30.5%; the “Evaluation (cancer cell growth rate)” value is “B (Cancer cell growth rate is 20% or more and less than 50%)”.

Turning to `CCN1/C(=C/C=C/C=C/C=C/C2=[N+](CC)c3ccccc3C2(C)C)C(C)(C)c2ccccc21` [Compound 32], in data set [2] (K562, 10 μg/ml), the “ALDH(+) Superiority evaluation” value is “A (The value of the growth rate of ALDH (+)/the growth rate of ALDH (−) is less than 0.8)” and the “ALDH(+)/ALDH(−)” value turned out to be 0.32.

As to `CCOC(=O)C1(C(=O)OCC)CC(/C=C/C2=[N+](CC)c3ccccc3C2(C)C)=CC(=C/C=C2/N(CC)c3ccccc3C2(C)C)/C1` [Compound 37], in data set [4], the Excitation wavelength λex was 650 nm and the Fluorescence wavelength λem was determined as 770 nm. In addition, in data set [3], the “Cancer cell growth rate (%)” value is reported as 4.8% and the “Evaluation (cancer cell growth rate)” value is reported as “A (Cancer cell growth rate is less than 20%)”.

On to `CCN1/C(=C/C=C2\CCCC(/C=C/C3=[N+](CC)c4ccc(OC)cc4C3(C)C)=C2Cl)C(C)(C)c2cc(OC)ccc21` [Compound 40], for which, in data set [4], the Excitation wavelength λex stood at 819 nm and the Fluorescence wavelength λem turned out to be 825 nm. In data set [3], the “Cancer cell growth rate (%)” value amounted to 14.1% and the “Evaluation (cancer cell growth rate)” value is “A (Cancer cell growth rate is less than 20%)”.

In data set [4], `CCN1C=C/C(=C/C=C/c2ccc3ccccc3[n+]2CC)c2ccccc21.[I-]` [Compound 45] displayed an Excitation wavelength λex of 665 nm and a Fluorescence wavelength λem of 681 nm. Further, in data set [3], the “Cancer cell growth rate (%)” value amounted to 28.5%; the “Evaluation (cancer cell growth rate)” value is “B (Cancer cell growth rate is 20% or more and less than 50%)”.

Turning to `CCCC[N+]1=C(/C=C/C2=C(Cl)C(=C/C=C3/N(C)c4ccccc4C3(C)C)/CCC2)C(C)(C)c2c1ccc1ccccc21` [Compound 51], in data set [2] (K562, 10 μg/ml), the “ALDH(+) Superiority evaluation” value was “A (The value of the growth rate of ALDH (+)/the growth rate of ALDH (−) is less than 0.8)” and the “ALDH(+)/ALDH(−)” value is 0.27.

On to `CCCCN1/C(=C/C=C2\CCCC(/C=C/C3=[N+](CCCC)c4ccccc4C3(C)C)=C2c2ccccc2)C(C)(C)c2ccccc21` [Compound 54], for which, in data set [4], the Excitation wavelength λex amounted to 774 nm and the Fluorescence wavelength λem stood at 800 nm. In addition, in data set [2] (K562, 10 μg/ml), the “ALDH(+) Superiority evaluation” value was “A (The value of the growth rate of ALDH (+)/the growth rate of ALDH (−) is less than 0.8)” and the “ALDH(+)/ALDH(−)” value turned out to be 0.50.

Turning to `CC(C)CCN1/C(=C/C=C/C=C/C2=[N+](CCC(C)C)c3ccc4ccccc4c3C2(C)C)C(C)(C)c2c1ccc1ccccc21` [Compound 55], in data set [4], the Excitation wavelength λex was 688 nm and the Fluorescence wavelength λem is 715 nm. In data set [2] (K562, 10 μg/ml), the “ALDH(+) Superiority evaluation” value is reported as “A (The value of the growth rate of ALDH (+)/the growth rate of ALDH (−) is less than 0.8)” and the “ALDH(+)/ALDH(−)” value is on record as 0.33.

Turning to `CCC(/C=C1\Oc2ccccc2N1CC)=C\c1oc2ccccc2[n+]1CC` [Compound 56], in data set [2] (K562, 10 μg/ml), the “ALDH(+) Superiority evaluation” value is listed as “A (The value of the growth rate of ALDH (+)/the growth rate of ALDH (−) is less than 0.8)” and the “ALDH(+)/ALDH(−)” value was 0.65.

On to `CCC(=C\c1oc2ccc(-c3ccccc3)cc2[n+]1CC)/C=C1/Oc2ccc(-c3ccccc3)cc2N1CC` [Compound 57], for which, in data set [2] (K562, 10 μg/ml), the “ALDH(+) Superiority evaluation” value was “B (The value of the growth rate of ALDH (+)/the growth rate of ALDH (−) is 0.8 or more and less than 0.95)”; the “ALDH(+)/ALDH(−)” value was 0.81.

In data set [4], `CN1/C(=C/C=C2\CCCC(/C=C/C3=[N+](C)c4ccccc4C3(C)C)=C2Sc2ccccc2)C(C)(C)c2ccccc21` [Compound 59] came in with an Excitation wavelength λex of 804 nm and a Fluorescence wavelength λem of 520 nm. Also, in data set [2] (K562, 1 μg/ml), the “ALDH(+) Superiority evaluation” value is given as “A (The value of the growth rate of ALDH (+)/the growth rate of ALDH (−) is less than 0.8)” and the “ALDH(+)/ALDH(−)” value came out at 0.67. In data set [2] (K562, 10 μg/ml), the “ALDH(+) Superiority evaluation” value was “A (The value of the growth rate of ALDH (+)/the growth rate of ALDH (−) is less than 0.8)” and the “ALDH(+)/ALDH(−)” value came out at 0.22.

In data set [4], `CN1/C(=C/C=C/C=C/C2=[N+](C)c3ccc4ccccc4c3C2(C)C)C(C)(C)c2cc(Cl)ccc21` [Compound 60] had an Excitation wavelength λex of 670 nm and a Fluorescence wavelength λem of 696 nm. For the same compound, in data set [2] (K562, 10 μg/ml), the “ALDH(+) Superiority evaluation” value is reported as “A (The value of the growth rate of ALDH (+)/the growth rate of ALDH (−) is less than 0.8)” and the “ALDH(+)/ALDH(−)” value was 0.34.
